According to PMC9738591, “N-[1,3-Dialkyl(aryl)-2-oxoimidazolidin-4-ylidene]-aryl(alkyl)sulphonamides as Novel Selective Human Cannabinoid Type 2 Receptor (hCB2R) Ligands; Insights into the Mechanism of Receptor Activation/Deactivation” (Molecules, 2022):
Read-outs that look alike come from different tables or passages of the source.

Columns and labels:
human CB2R [1] = biological target: T1, human CB2R (Homo sapiens, UniProt P34972); test: cAMP Hunter assay, effect on NKH-477-induced cAMP levels (agonist mode); assay type: cell-based; settings: for Effect on NKH-477-induced cAMP levels (functional behavior): CHO-K1 cells overexpressing human CB2R, compound alone
T1 sequence (P34972 whole entry): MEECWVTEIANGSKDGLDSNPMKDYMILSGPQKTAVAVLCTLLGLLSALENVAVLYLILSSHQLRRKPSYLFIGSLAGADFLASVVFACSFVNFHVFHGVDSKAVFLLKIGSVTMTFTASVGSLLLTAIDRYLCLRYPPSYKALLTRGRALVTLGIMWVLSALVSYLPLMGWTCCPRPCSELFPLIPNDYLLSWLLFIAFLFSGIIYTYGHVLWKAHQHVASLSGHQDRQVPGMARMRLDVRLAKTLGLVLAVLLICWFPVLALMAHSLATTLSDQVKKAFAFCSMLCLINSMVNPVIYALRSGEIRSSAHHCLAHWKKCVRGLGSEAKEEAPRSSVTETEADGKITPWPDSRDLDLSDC
Procedure: The above-mentioned compounds were tested for their functional activity.
Gi-coupled cAMP modulation was measured following the manufacturer’s protocol (Eurofins, Fremont, CA, USA), as previously reported. Briefly, CHO-K1 cells overexpressing the human CB2R were plated into a 96-well plate (10,000 cells/well) and incubated overnight at 37 °C, 5% CO2. Media was aspirated and replaced with 30 μL of assay buffer. Cells were incubated for 30 min at 37 °C with 15 μL of 3× dose−response solutions of samples prepared in the presence of a cell assay buffer containing 3× of 25 μM NKH-477 solution to stimulate adenylate cyclase and enhance basal cAMP levels. For those compounds not showing a decrease in cAMP levels, the effect upon receptor activation in the presence of the JWH-133 selective agonist was investigated. Cells were pre-incubated with samples (15 min at 37 °C at 6× the final desired concentration), followed by 30 min incubation with the JWH-133 agonist challenge at the EC80 concentration (EC80 = 4 μM, previously determined in separate experiments) in the presence of NKH-477 to stimulate adenylate cyclase and enhance cAMP levels. Cell lysis and cAMP detection were performed as per the manufacturer’s protocol. Luminescence measurements were performed using a GloMax Multi Detection System (Promega, Italy). Data are reported as the means ± SEM of three independent experiments conducted in triplicate and were normalized considering the NKH-477 stimulus alone as 100% of the response. Data were analyzed using PRISM.9.3 software (GraphPad Software Inc, San Diego, CA, USA).
Figure 7 Concentration-response curves of compounds in the cAMP Hunter assay. Curves show the effect of increasing concentrations of compounds on NKH-477-induced cAMP levels in stable CHO cells expressing the human CB2. Data are reported as the means ± SEM of three independent experiments conducted in triplicate, normalized to the maximal and minimal responses.

human recombinant CB1R = biological target: T2, human recombinant CB1R (Homo sapiens, UniProt P21554); test: Competition binding assay, displacement of [3H]-CP-55,940 from membranes of HEK-293 cells overexpressing CB1R
T2 construct: purchased Perkin-Elmer, Italy; host or cells: HEK-293 cells (membranes)
T2 sequence (P21554 whole entry): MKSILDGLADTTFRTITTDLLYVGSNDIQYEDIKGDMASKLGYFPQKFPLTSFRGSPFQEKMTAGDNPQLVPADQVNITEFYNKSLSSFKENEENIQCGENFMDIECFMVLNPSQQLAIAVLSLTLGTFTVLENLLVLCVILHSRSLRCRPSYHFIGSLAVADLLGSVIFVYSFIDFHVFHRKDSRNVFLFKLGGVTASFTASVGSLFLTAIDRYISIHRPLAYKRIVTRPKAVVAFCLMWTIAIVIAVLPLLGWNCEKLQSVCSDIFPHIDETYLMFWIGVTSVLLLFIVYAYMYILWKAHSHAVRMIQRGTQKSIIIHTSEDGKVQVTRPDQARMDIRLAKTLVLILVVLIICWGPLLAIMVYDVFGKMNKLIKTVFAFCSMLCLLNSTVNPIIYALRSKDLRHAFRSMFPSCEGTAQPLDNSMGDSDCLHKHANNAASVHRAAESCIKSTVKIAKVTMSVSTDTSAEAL
Procedure: (§1) The binding affinities (Ki values) of the compounds for human recombinant hCB1R and hCB2R were determined as previously described, using SR144528 as a reference compound [30], and are reported in Table 1.
(§2) Compound affinity for CB1R and CB2R was measured as previously reported. […] Competition curves were performed by displacing [^3H]-CP-55 940 with increasing concentrations of compounds (0.1 nM–10 or 25 μM). […] All compounds were tested following the procedure described by the manufacturer (Perkin-Elmer, Italy). Displacement curves were generated by incubating drugs with [^3H]-CP-55 940 for 90 min at 30 °C. Ki values were calculated by applying the Cheng−Prusoff equation to the IC50 values for the displacement of the bound radioligand by increasing concentrations of the test compound. Data represent the mean values of three independent experiments performed in duplicate and are expressed as the average of Ki (µM) ± standard deviation. Data were analyzed using PRISM.9.3 software (GraphPad Software Inc, San Diego, CA, USA).

human CB2R [2] = biological target: T1, human CB2R; test: cAMP Hunter assay in the presence of JWH-133 agonist challenge (antagonist mode); assay type: cell-based
Procedure: Only a small displacement was observed and only at the highest concentration (Figure 8). We reasoned that the discrepancy with the predictions was mainly due to the chemical–physical features of the molecule and that the lack of antagonism was caused by issues related to compound solubility in the buffer used for the assay. Indeed, the maximum concentration of 12b that could be reached in the buffer solution used for the functional assay, measured by UV absorption as well as by HPLC, was 2.3 µM.

human CB2R [3] = biological target: T1, human CB2R; test: Competition binding assay, displacement of [3H]-CP-55,940 from membranes of HEK-293 cells overexpressing CB2R; parameters: purchased Perkin-Elmer, Italy; host or cells: HEK-293 cells (membranes); settings: for inhibition at 25 µM: max conc. tested 25 µM
Procedure: as §1, §2

[4] = [3H]-CP-55,940 displacement, HEK-293 membranes, 90 min at 30 °C, Cheng-Prusoff, read-out: Ki hCB1R (µM ± S.E.)
[5] = read-out: % Displacement/ Max. Conc. Tested, hCB1R
[6] = [3H]-CP-55,940 displacement, HEK-293 membranes, 90 min at 30 °C, Cheng-Prusoff, read-out: Ki hCB2R (µM ± S.E.)
[7] = max conc. tested 10 µM, read-out: % Displacement/ Max Conc. Tested, hCB2R (converted)
[8] = stable CHO cells expressing the human CB2, read-out: EC50, reduction of NKH-477-induced cAMP levels
[9] = read-out: % Displacement/ Max Conc. Tested, hCB2R (converted)

O=C1N(CC2CC2)C(=NS(=O)(=O)c2cccc(Br)c2)CN1C12CC3CC(CC(C3)C1)C2 [Compound 12e, N-[1-Adamant-1-yl-3-cyclopropylmethyl-2-oxoimidazolidin-4-ylidene]-3-bromo-1-benzenesulfonamide]
Effect on NKH-477-induced cAMP levels (functional behavior) (human CB2R [1]): did not alter the level of cAMP
Ki (human recombinant CB1R; [4]): > 10 µM
inhibition at 10 µM (human recombinant CB1R; [5]): 5.07%
melting point: 138 to 138.5 °C
Antagonism of JWH-133-induced inhibition of NKH-477-induced cAMP formation (human CB2R [2]; JWH-133 4 µM (EC80) agonist challenge): fully antagonize
Ki (human CB2R [3]; [6]): 0.16 ± 0.03 µM
inhibition at 10 µM (human CB2R [3]; [7]): 71.4%

CC(C)(C)N1CC(=NS(=O)(=O)c2cccc(Br)c2)N(CC2CC2)C1=O [Compound 10e, 3-Bromo-N-[1-tert-Butyl-3-cyclopropylmethyl-2-oxoimidazolidin-4-ylidene]benzenesulfonamide]
Effect on NKH-477-induced cAMP levels (functional behavior) (human CB2R [1]): typical agonist behavior
EC50 (human CB2R [1]; [8]): 0.264 µM
Ki (human recombinant CB1R; [4]): > 10 µM
inhibition at 10 µM (human recombinant CB1R; [5]): 10.8%
melting point: 114 to 115 °C
Ki (human CB2R [3]; [6]): 0.34 ± 0.08 µM
inhibition at 10 µM (human CB2R [3]; [7]): 83.5%

CS(=O)(=O)N=C1CN(C23CC4CC(CC(C4)C2)C3)C(=O)N1CC1CC1 [Compound 12a, N-[1-Adamant-1-yl-3-cyclopropylmethyl-2-oxoimidazolidin-4-ylidene]methanesulfonamide]
Effect on NKH-477-induced cAMP levels (functional behavior) (human CB2R [1]): typical agonist behavior
EC50 (human CB2R [1]; [8]): 2.14 µM
Ki (human recombinant CB1R; [4]): 0.21 ± 0.004 µM
inhibition at 25 µM (human recombinant CB1R; [5]): 76.5%
melting point: 199.5 to 200 °C
Ki (human CB2R [3]; [6]): 0.28 ± 0.05 µM
inhibition at 25 µM (human CB2R [3]; [9]): 76.5%

CC(C)(C)N1CC(=NS(=O)(=O)c2ccccc2)N(CC2CC2)C1=O [Compound 10b, N-[1-tert-Butyl-3-cyclopropylmethyl-2-oxoimidazolidin-4-ylidene]benzenesulfonamide]
Effect on NKH-477-induced cAMP levels (functional behavior) (human CB2R [1]): typical agonist behavior
EC50 (human CB2R [1]; [8]): 1.26 µM
Ki (human recombinant CB1R; [4]): > 10 µM
inhibition at 10 µM (human recombinant CB1R; [5]): 10.5%
melting point: 114.5 to 115 °C
Ki (human CB2R [3]; [6]): 1.67 ± 0.16 µM
inhibition at 25 µM (human CB2R [3]; [9]): 73%

COCCN1C(=O)N(C(C)(C)C)CC1=NS(C)(=O)=O [Compound 11a, N-[1-tert-Butyl-3-(2-methoxyethyl)-2-oxoimidazolidin-4-ylidene]methanesulfonamide]
Ki (human recombinant CB1R; [4]): > 10 µM
inhibition at 10 µM (human recombinant CB1R; [5]): 65.3%
melting point: 70.5 to 71 °C
Ki (human CB2R [3]; [6]): > 10 µM
inhibition at 10 µM (human CB2R [3]; [7]): 14.1%

Cc1cc(C)c(S(=O)(=O)N=C2CN(C34CC5CC(CC(C5)C3)C4)C(=O)N2CC2CC2)c(C)c1 [Compound 12f, N-[1-Adamant-1-yl-3-cyclopropylmethyl-2-oxoimidazolidin-4-ylidene]-2,4,6-trimethyl-1-benzenesulfonamide]
Ki (human recombinant CB1R; [4]): > 10 µM
inhibition at 10 µM (human recombinant CB1R; [5]): 59.2%
melting point: 166.5 to 167.5 °C
Ki (human CB2R [3]; [6]): > 10 µM
inhibition at 10 µM (human CB2R [3]; [7]): 40.2%

CCCC(C)(C)c1ccc2c(c1)OC(C)(C)[C@@H]1CC=C(C)C[C@@H]21 [JWH-133, reference compound]
EC80 concentration of agonist challenge (human CB2R [2]; previously determined in separate experiments): 4 µM

COCCN1C(=O)N(C(C)(C)C)CC1=NS(=O)(=O)c1ccc2ccccc2c1 [Compound 11h, N-[1-tert-Butyl-3-(2-methoxyethyl)-2-oxoimidazolidin-4-ylidene]naphthalene-2-sulfonamide]
Ki (human recombinant CB1R; [4]): > 10 µM
inhibition at 10 µM (human recombinant CB1R; [5]): 45.3%
melting point: 129.5 to 130.5 °C
Ki (human CB2R [3]; [6]): > 10 µM
inhibition at 10 µM (human CB2R [3]; [7]): 40.1%

Cc1ccc(S(=O)(=O)N=C2CN(C(C)(C)C)C(=O)N2CC2CC2)cc1 [Compound 10c, N-[1-tert-Butyl-3-cyclopropylmethyl-2-oxoimidazolidin-4-ylidene]-4-methylbenzenesulfonamide]
Ki (human recombinant CB1R; [4]): > 10 µM
inhibition at 10 µM (human recombinant CB1R; [5]): 0%
melting point: 104.5 to 105 °C
Ki (human CB2R [3]; [6]): 1.47 ± 0.05 µM
inhibition at 25 µM (human CB2R [3]; [9]): 89.5%

Cc1ccc(S(=O)(=O)N=C2CN(C34CC5CC(CC(C5)C3)C4)C(=O)N2CC2CC2)cc1 [Compound 12c, N-[1-Adamant-1-yl-3-cyclopropylmethyl-2-oxoimidazolidin-4-ylidene]-4-methyl-1-benzenesulfonamide]
Ki (human recombinant CB1R; [4]): > 10 µM
inhibition at 10 µM (human recombinant CB1R; [5]): 34.6%
melting point: 188.5 to 189 °C
Ki (human CB2R [3]; [6]): > 10 µM
inhibition at 10 µM (human CB2R [3]; [7]): 20.6%

CC(C)(C)N1CC(=NS(=O)(=O)c2cccc3ccccc23)N(CC2CC2)C1=O [Compound 10g, N-[1-tert-Butyl-3-cyclopropylmethyl-2-oxoimidazolidin-4-ylidene]naphthalene-1-sulfonamide]
EC50 (human CB2R [1]): 0.072 µM
Effect on NKH-477-induced cAMP levels (functional behavior) (human CB2R [1]): typical agonist behavior
Ki (human recombinant CB1R): > 10 µM
inhibition at 10 µM (human recombinant CB1R; [5]): 24.9%
Ki (human CB2R [3]): 0.06 ± 0.01 µM
inhibition at 10 µM (human CB2R [3]; read-out: % Displacement/ Max Conc. Tested, hCB2R): 95.7%

Cc1cc(C)c(S(=O)(=O)N=C2CN(C(C)(C)C)C(=O)N2CC2CC2)c(C)c1 [Compound 10f, N-[1-tert-Butyl-3-cyclopropylmethyl-2-oxoimidazolidin-4-ylidene]-2,4,6-trimethylbenzenesulfonamide]
Ki (human recombinant CB1R; [4]): > 10 µM
inhibition at 10 µM (human recombinant CB1R; [5]): 15.4%
melting point: 149 to 150 °C
Ki (human CB2R [3]; [6]): 0.63 ± 0.14 µM
inhibition at 10 µM (human CB2R [3]; [7]): 81.3%

COCCN1C(=O)N(C(C)(C)C)CC1=NS(=O)(=O)c1c(C)cc(C)cc1C [Compound 11f, N-[1-tert-Butyl-3-(2-methoxyethyl)-2-oxoimidazolidin-4-ylidene]-2,4,6-trimethylbenzene-1-sulfonamide]
Ki (human recombinant CB1R; [4]): > 10 µM
inhibition at 10 µM (human recombinant CB1R; [5]): 55.7%
melting point: 141 to 143.5 °C
Ki (human CB2R [3]; [6]): 3.45 ± 0.95 µM
inhibition at 10 µM (human CB2R [3]; [7]): 64.8%

COCCN1C(=O)N(C(C)(C)C)CC1=NS(=O)(=O)c1ccccc1 [Compound 11b, N-[1-tert-Butyl-3-(2-methoxyethyl)-2-oxoimidazolidin-4-ylidene]benzenesulfonamide]
Ki (human recombinant CB1R; [4]): > 10 µM
inhibition at 10 µM (human recombinant CB1R; [5]): 52.6%
melting point: 104.5 to 105 °C
Ki (human CB2R [3]; [6]): > 10 µM
inhibition at 10 µM (human CB2R [3]; [7]): 21.2%

COCCN1C(=O)N(C(C)(C)C)CC1=NS(=O)(=O)c1ccc(Br)cc1 [Compound 11d, 4-Bromo-N-[1-tert-butyl-3-(2-methoxyethyl)-2-oxoimidazolidin-4-ylidene]benzenesulfonamide]
Ki (human recombinant CB1R; [4]): > 10 µM
inhibition at 10 µM (human recombinant CB1R; [5]): 50.1%
melting point: 103.5 to 104 °C
Ki (human CB2R [3]; [6]): > 10 µM
inhibition at 10 µM (human CB2R [3]; [7]): 42.7%

COCCN1C(=O)N(C(C)(C)C)CC1=NS(=O)(=O)c1cccc(Br)c1 [Compound 11e, 3-Bromo-N-[1-tert-butyl-3-(2-methoxyethyl)-2-oxoimidazolidin-4-ylidene]benzenesulfonamide]
Ki (human recombinant CB1R; [4]): > 10 µM
inhibition at 10 µM (human recombinant CB1R; [5]): 10%
melting point: 104 to 105 °C
Ki (human CB2R [3]; [6]): > 10 µM
inhibition at 10 µM (human CB2R [3]; [7]): 41.1%

COCCN1C(=O)N(C(C)(C)C)CC1=NS(=O)(=O)c1ccc(C)cc1 [Compound 11c, N-[1-tert-Butyl-3-(2-methoxyethyl)-2-oxoimidazolidin-4-ylidene]-4-methylbenzene-1-sulfonamide]
Ki (human recombinant CB1R; [4]): > 10 µM
inhibition at 10 µM (human recombinant CB1R; [5]): 57%
melting point: 106 to 107 °C
Ki (human CB2R [3]; [6]): > 10 µM
inhibition at 10 µM (human CB2R [3]; [7]): 33.4%
